Results taken from US20160030391A1, “METHODS AND COMPOSITIONS FOR IMPROVING COGNITIVE FUNCTION” (THE JOHNS HOPKINS UNIVERSITY, priority 2013, published 2016).

Assays:
[1] = test system: aMCI subjects; test: Buschke Selective Reminding Test - Delayed Recall; type: in vivo, human; details: levetiracetam 125 mg twice a day for two weeks
[2] = test system: aMCI subjects; test: Benton Visual Retention Test; type: in vivo, human; details: levetiracetam 125 mg twice a day for two weeks
Source text: (§1) Breaks are provided to the subject as needed.

[3] = test system: aMCI subjects; test: Verbal Paired Associates Test - Delayed Recall; type: in vivo, human; details: levetiracetam 125 mg twice a day for two weeks
Source text: as §1

[4] = test system: somatostatin in DG hilus; test: anti-SOM immunohistochemistry, hilar interneuron counts after chronic levetiracetam; type: in vivo, rat; details: levetiracetam 10 mg/kg/day, osmotic minipumps, four weeks, aged-impaired rats
Description: Under isoflurane anesthesia, memory-impaired aged rats were implanted subcutaneously in the intrascapular region with osmotic mini-pumps (ALZET, Durect Corporation, Cupertino, Calif.) with levetiracetam (10 mg/kg/day) or saline vehicle for four weeks prior to perfusion. Young rats, which served as controls, received either saline vehicle in mini-pumps or no implantation.
At the end of the 4-week treatment period, rats were anesthetized with isoflurane and perfused transcardiacally with 0.1 M phosphate buffer saline, followed by 4% paraformaldehyde in phosphate buffer. Brains were removed and post-fixed in paraformaldehyde overnight. […]
Tissue was labeled with anti-SOM antiserum (Santa Cruz Biotechnology; cat. no. SC7819-P) using an established immunoperoxidase protocol and tissue sections were processed concurrently to minimize inter-replication variability (Haberman et al., 2009). […] The secondary antibody was detected with avidin-biotin complex (ABC Elite; Vector Laboratories Inc., Burlingame, Calif.) and the avidin-biotin complex was visualized with nickel-enhanced diaminobenzadine (Vector Laboratories Inc., Burlingame, Calif.). […]
Interneuron quantification was performed using a Zeiss Axioplan 2 microscope equipped with a motorized stage. […] Neuron counts were analyzed as the total number of hilar interneurons per hippocampal section for each rat.

CC[C@@H](C(N)=O)N1CCCC1=O [levetiracetam, (2S)-2-(2-oxopyrrolidin-1-yl)butanamide]
performance in Buschke Selective Reminding Test—Delayed Recall [1]: fail to rescue performance | performance in Benton Visual Retention Test [2]: fail to rescue performance | performance in Verbal Paired Associates Test—Delayed Recall [3]: fail to rescue performance | levels of somatostatin in DG hilus (SOM-immunoreactive hilar neurons) [4]: restores
